Assay results: PubChem BioAssay AID248 (DTP/NCI, 2004)
“And” between values parts separate entries of the source, which are not always exact repeats. Equal entries are not always repeated. Toxic doses and inconclusive results are not listed.

System: L1210 leukemia ip in BDF1 mice, survival T/C
Assay: NCI In Vivo Anticancer Drug Screen. Data for tumor model L1210 Leukemia (intraperitoneal) in B6D2F1 (BDF1) mice
Settings: endpoint: mean survival time, higher = longer survival
How it was run: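 Read-out is survival time, reported as the treated-group measurement over the vehicle-control measurement.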

[1] = dose: 100.0 mg/kg/injection, schedule: Q01DX009 (ip), vehicle: Klucel (hydroxypropylcellulose) (HPC)
[2] = dose: 100.0 mg/kg/injection, schedule: Q04DX003 (ip), vehicle: saline
[3] = dose: 100.0 mg/kg/injection, schedule: Q04DX002 (ip), vehicle: Klucel (hydroxypropylcellulose) (HPC)
[4] = dose: 50.0 mg/kg/injection, schedule: Q01DX001 (ip), vehicle: saline
[5] = dose: 100.0 mg/kg/injection, schedule: Q01DX001 (ip), vehicle: saline
[6] = dose: 200.0 mg/kg/injection, schedule: Q01DX001 (ip), vehicle: saline
[7] = dose: 25.0 mg/kg/injection, schedule: Q01DX009 (ip), vehicle: saline
[8] = dose: 400.0 mg/kg/injection, schedule: Q01DX001 (ip), vehicle: saline

O=S(=O)(c1cc(Cl)c(O)c(Cl)c1)c1cc(Cl)c(O)c(Cl)c1
T/C (dose: 25.0 mg/kg/injection, schedule: Q01DX009 (ip), vehicle: Klucel (hydroxypropylcellulose) (HPC)): 92 % of control
T/C (dose: 50.0 mg/kg/injection, schedule: Q01DX009 (ip), vehicle: Klucel (hydroxypropylcellulose) (HPC)): 96 % of control
T/C [1]: 95 % of control and 109 % of control

CN1CCC(OC(=O)C2CC(=O)N(C)C(=O)C2)CC1
T/C (dose: 25.0 mg/kg/injection, schedule: Q04DX003 (ip), vehicle: saline): 98 % of control
T/C (dose: 50.0 mg/kg/injection, schedule: Q04DX003 (ip), vehicle: saline): 98 % of control
T/C [2]: 100 % of control

COC(=O)C1C(=O)CC2(C)CCCCC12 (stereo unspecified)
T/C [3]: 97 % of control
T/C (dose: 200.0 mg/kg/injection, schedule: Q04DX002 (ip), vehicle: Klucel (hydroxypropylcellulose) (HPC)): 100 % of control
T/C (dose: 400.0 mg/kg/injection, schedule: Q04DX002 (ip), vehicle: Klucel (hydroxypropylcellulose) (HPC)): 93 % of control

CCOC(=S)SCC(=O)CSC(=S)OCC
T/C (dose: 25.0 mg/kg/injection, schedule: Q04DX002 (ip), vehicle: Klucel (hydroxypropylcellulose) (HPC)): 103 % of control
T/C (dose: 50.0 mg/kg/injection, schedule: Q04DX002 (ip), vehicle: Klucel (hydroxypropylcellulose) (HPC)): 97 % of control
T/C [3]: 110 % of control

CC(=O)[C@H]1CC[C@H]2[C@@H]3CC[C@@H]4C[C@@H](O)CC[C@]4(C)[C@H]3CC[C@]12C
T/C (dose: 100.0 mg/kg/injection, schedule: Q04DX002 (ip), vehicle: saline with Tween-80): 97 % of control
T/C (dose: 200.0 mg/kg/injection, schedule: Q04DX002 (ip), vehicle: saline with Tween-80): 100 % of control
T/C (dose: 400.0 mg/kg/injection, schedule: Q04DX002 (ip), vehicle: saline with Tween-80): 90 % of control

CCN(CCO)CCNc1ccc(C)c2sc3ccccc3c(=O)c12
T/C (dose: 26.0 mg/kg/injection, schedule: Q01DX009 (ip), vehicle: saline): 110 % of control
T/C (dose: 40.0 mg/kg/injection, schedule: Q01DX009 (ip), vehicle: saline): 122 % of control
T/C [4]: 105 % of control
T/C (dose: 60.0 mg/kg/injection, schedule: Q01DX009 (ip), vehicle: saline): 124 % of control
T/C (dose: 78.0 mg/kg/injection, schedule: Q04DX003 (ip), vehicle: saline): 111 % of control
T/C [5]: 116 % of control
T/C (dose: 114.0 mg/kg/injection, schedule: Q01DX001 (ip), vehicle: saline): 104 % of control
T/C (dose: 114.0 mg/kg/injection, schedule: Q04DX003 (ip), vehicle: saline): 120 % of control
T/C (dose: 135.0 mg/kg/injection, schedule: Q01DX009 (ip), vehicle: saline): 95 % of control
T/C (dose: 174.0 mg/kg/injection, schedule: Q01DX001 (ip), vehicle: saline): 110 % of control
T/C (dose: 174.0 mg/kg/injection, schedule: Q04DX003 (ip), vehicle: saline): 172 % of control
T/C [6]: 121 % of control
T/C (dose: 260.0 mg/kg/injection, schedule: Q01DX001 (ip), vehicle: saline): 165 % of control

O=C(NCCCCCCNC(=O)N(Cc1ccccc1)Cc1ccccc1)N(Cc1ccccc1)Cc1ccccc1
T/C (dose: 100.0 mg/kg/injection, schedule: Q04DX002 (ip), vehicle: saline): 105 % of control
T/C (dose: 200.0 mg/kg/injection, schedule: Q04DX002 (ip), vehicle: saline): 97 % of control
T/C (dose: 400.0 mg/kg/injection, schedule: Q04DX002 (ip), vehicle: saline): 108 % of control

O=C1NC2(CCCCC2)NC12CCCCC2
T/C [7]: 118 % of control
T/C (dose: 50.0 mg/kg/injection, schedule: Q01DX009 (ip), vehicle: saline): 110 % of control
T/C (dose: 100.0 mg/kg/injection, schedule: Q01DX009 (ip), vehicle: saline): 106 % of control

Nc1nc(N)c(-c2ccc(Cl)cc2)c(CN2C(=O)c3ccccc3C2=O)n1
T/C (dose: 75.0 mg/kg/injection, schedule: Q01DX001 (ip), vehicle: Klucel (hydroxypropylcellulose) (HPC)): 97 % of control
T/C (dose: 150.0 mg/kg/injection, schedule: Q01DX001 (ip), vehicle: Klucel (hydroxypropylcellulose) (HPC)): 92 % of control
T/C (dose: 300.0 mg/kg/injection, schedule: Q01DX001 (ip), vehicle: Klucel (hydroxypropylcellulose) (HPC)): 92 % of control

c1ccc(C2(c3ccccc3)CC([P+](c3ccccc3)(c3ccccc3)c3ccccc3)=NN2)cc1
T/C [5]: 108 % of control
T/C [6]: 115 % of control

CC(C)=CCCC(C)C/C=N\O (stereo unspecified)
T/C (dose: 100.0 mg/kg/injection, schedule: Q01DX009 (ip), vehicle: saline with Tween-80): 101 % of control
T/C (dose: 100.0 mg/kg/injection, schedule: Q04DX003 (ip), vehicle: saline with Tween-80): 100 % of control
T/C (dose: 200.0 mg/kg/injection, schedule: Q01DX009 (ip), vehicle: saline with Tween-80): 104 % of control
T/C (dose: 200.0 mg/kg/injection, schedule: Q04DX003 (ip), vehicle: saline with Tween-80): 103 % of control
T/C (dose: 400.0 mg/kg/injection, schedule: Q04DX003 (ip), vehicle: saline with Tween-80): 106 % of control

CCN(CC)C(=S)Nc1ccc([N+](=O)[O-])cc1
T/C [1]: 104 % of control
T/C (dose: 200.0 mg/kg/injection, schedule: Q01DX009 (ip), vehicle: Klucel (hydroxypropylcellulose) (HPC)): 86 % of control
T/C (dose: 400.0 mg/kg/injection, schedule: Q01DX009 (ip), vehicle: Klucel (hydroxypropylcellulose) (HPC)): 100 % of control

C[CH2][Sn]([Cl])([Cl])[CH2]C.Oc1ccccc1C=NCCN=Cc1ccccc1O
T/C (dose: 5.0 mg/kg/injection, schedule: Q01DX009 (ip), vehicle: saline with Tween-80): 98 % of control
T/C (dose: 5.0 mg/kg/injection, schedule: Q04DX003 (ip), vehicle: saline with Tween-80): 106 % of control
T/C (dose: 10.0 mg/kg/injection, schedule: Q01DX009 (ip), vehicle: saline with Tween-80): 97 % of control
T/C (dose: 10.0 mg/kg/injection, schedule: Q04DX003 (ip), vehicle: saline with Tween-80): 100 % of control
T/C (dose: 20.0 mg/kg/injection, schedule: Q04DX003 (ip), vehicle: saline with Tween-80): 108 % of control

CN1C(=O)CCC1=O
T/C [2]: 103 % of control
T/C (dose: 200.0 mg/kg/injection, schedule: Q04DX003 (ip), vehicle: saline): 98 % of control
T/C (dose: 400.0 mg/kg/injection, schedule: Q04DX003 (ip), vehicle: saline): 98 % of control

O=C(C[n+]1cccc(Cl)c1)c1ccccc1
T/C (dose: 0.5 mg/kg/injection, schedule: Q04DX003 (ip), vehicle: saline): 113 % of control
T/C (dose: 1.0 mg/kg/injection, schedule: Q04DX003 (ip), vehicle: saline): 105 % of control
T/C (dose: 2.0 mg/kg/injection, schedule: Q04DX003 (ip), vehicle: saline): 102 % of control

ICc1ccc(CI)cc1
T/C [7]: 100 % of control
T/C (dose: 100.0 mg/kg/injection, schedule: Q01DX001 (ip), vehicle: other): 106 % of control
T/C (dose: 100.0 mg/kg/injection, schedule: Q04DX003 (ip), vehicle: acetone): 106 % of control
T/C (dose: 200.0 mg/kg/injection, schedule: Q01DX001 (ip), vehicle: other): 88 % of control
T/C (dose: 400.0 mg/kg/injection, schedule: Q01DX001 (ip), vehicle: other): 88 % of control

COC1=C2C=[N+](C)C3C(=C2C=CC1OC)Cc1cc(OC)c(OC)cc13 (stereo unspecified)
T/C [4]: 98 % of control
T/C [5]: 93 % of control
T/C [6]: 102 % of control
T/C [8]: 96 % of control

C=CCOCC(O)COP(=O)(O)O (stereo unspecified)
T/C [4]: 113 % of control
T/C [5]: 103 % of control
T/C [6]: 107 % of control
T/C [8]: 109 % of control
